Assay results: paper PMC8594108, “In vitro growth inhibitory activity of Medicines for Malaria Venture pathogen box compounds against Leishmania aethiopica” (BMC Pharmacology & Toxicology, 2021)
Values joined by “and” are separate entries in the source; they are usually repeats but may differ in a detail not shown here. Equal entries are not always repeated. Where two headings read alike, the source gives them in different places.

Columns and labels:
[1] = tested on: L. aethiopica promastigotes; assay: Primary antipromastigote assay (resazurin based); type: cell-based; settings: Leishmania aethiopica, 72 h; for IC50: dose titration 0.03 to 1 μM, average of two independent experiments in triplicate, read-out: IC50 (95% CI) against Leishmania aethiopica promastigotes
Description: Test compounds were diluted in 96-well microculture plate containing 100 μL complete M199 medium. […] The Parasite density was kept constant at 1 × 10^5 per well. After 68 h of incubation, 10 μL of fluorochrome resazurin solution (Sigma-Aldrich, Co., St. […] The percentage of inhibition (%) was calculated for each concentration using the following formula: Inhibition%=100−Fluorescence in duplicate drug wells-Fluorescence in blank wells/Fluorescence control wells−Fluorescence in blank wells∗100

[2] = tested on: intracellular L. aethiopica amastigotes; assay: Intracellular amastigote assay in mouse peritoneal macrophages; type: cell-based, Leishmania aethiopica; settings: for IC50 / inhibition at 1 µM: Leishmania aethiopica, Peritoneal macrophage, 72 h; for IC50: mouse peritoneal macrophages, read-out: IC50 against intracellular L. aethiopica amastigotes; for inhibition at 1 µM: read-out: percentage of inhibition of intracellular amastigotes
Description: Intracellular amastigote assay was conducted according to the method described elsewhere with modifications. Approximately 3 × 10^5 peritoneal macrophages were seeded in 24-well plates and allowed to adhere for 12 h at 33 °C in 5% CO2. Adherent cells were infected with late-stage L. aethiopica promastigotes (1:10 ratio) after washing out non-adherent cells twice. Only when > 70% of the macrophages present in the wells were infected was the infection deemed sufficient. The medium was then replaced with a fresh complete medium with or without test compounds and incubated for 72 h at 33 °C and 5% CO2. After 72 h of incubation, slides were washed with prewarmed PBS, fixed with methanol, and stained with Giemsa (10%) for 15 min and observed under 100x oil immersion objective microscope [Olympus]. Amphotericin B and pentamidine were used as reference drugs against test samples.
The IC50 was determined by counting amastigotes in (50) macrophages in duplicate cultures. In all assays except for haemolytic and THP- 1, test compounds were diluted in a two-fold dose-titration range (0.03 to 1 μM) in triplicate. Parasite burden was calculated using the infection index as shown below. Infection index=Number of infected macrophages/Total macrophage countedxTotal number of amastigotes in infected macrophages/Total infected macrophages counted

Haemolysis test = type: cell-based, sheep; settings: sheep
Description: (§1) The mixture was then centrifuged at 1000 g for 10 min. 75 μL of the resulting supernatant were transferred to 96-well plates and the absorbance readings obtained at 540 nm using Victor3 Multilabel Counter (PerkinElmer, Waltham, USA).

[3] = THP-1 cell cytotoxicity assay (resazurin); type: cell-based; settings: human
Description: (§2) Approximately 2 × 10^5 THP-1 cell suspension were added to 96-well microplate containing serially diluted 50 μL test compounds. Microplates were then incubated for 68 h at 37 °C in a 5% CO2 air mixture. Cell viability was determined with the resazurin- based fluorescence assay measured after a total incubation time of 72 h. The estimated median cell cytotoxicity (CC50) was calculated for each concentration using the formula: Cell viability%=Fluorescence in duplicate drug wells-Fluorescence blank wells/Fluorescence in control wells−Fluorescence blank wells∗100 The selectivity index of compounds was calculated from the ratio of the CC50 value determined in THP1 cells to the IC50 value determined from the dose-response curves in promastigote and amastigote assay using the following formula. Selectivity indexSI=CC50THP1cells/IC50promastigotes or amstigotes

[4] = ref NCBI PubChem [29]-[39]; cited from earlier work
[5] = tested on: sheep red blood cells (RBCs); assay: Haemolysis test; type: cell-based; settings: at 25 μM
Description: as §1

THP-1 cells = assay: THP-1 cell cytotoxicity assay (resazurin); type: cell-based
Description: as §2

L. infantum = tested on: L. infantum; parameters: method as in MMV biological data; settings: ref MMV biological data; cited from earlier work
MRC-5 cells = tested on: MRC-5 cells; parameters: method as in MMV (MMV PB website); settings: ref MMV (MMV PB website); read-out: IC50 against MRC-5 cells; cited from earlier work
PMM cells = tested on: PMM cells; parameters: method as in MMV (MMV PB website); settings: ref MMV (MMV PB website); read-out: IC50 against PMM cells; cited from earlier work
[6] = hit map sheet with colour categories, negative values shown as 0.00, read-out: Percentage of inhibition against Leishmania aethiopica promastigotes
[7] = hit map sheet without colour categories, negative values kept, read-out: Percentage of inhibition against Leishmania aethiopica promastigotes
[8] = sheep red blood cells (2% blood suspension), 1.56–25 μM, 2 h, 37 °C, read-out: Cytotoxicity, CC50, Sheep RBC
[9] = THP-1 cells, 72 h, read-out: Cytotoxicity, CC50, THP-1

Q: What does the source list for `C[C@@H]1[C@H](O)[C@@H](C)/C=C/C=C/C=C/C=C/C=C/C=C/C=C/[C@H](O[C@@H]2O[C@H](C)[C@@H](O)[C@H](N)[C@@H]2O)C[C@@H]2O[C@](O)(C[C@@H](O)C[C@@H](O)[C@H](O)CC[C@@H](O)C[C@@H](O)CC(=O)O[C@H]1C)C[C@H](O)[C@H]2C(=O)O` [Amphotericin B, reference compound]?
A: inhibition at 1 µM [1, 6]: 63%; inhibition at 1 µM [1, 7]: 63%; IC50 [2]: 277 ± 7.9 nM

Q: Which inhibition at 1 µM [1, 6] does the source give for `CN1CCC(NCc2cccc(-c3ccc(S(=O)(=O)NCc4ccccc4)cc3)c2)CC1` [MMV022029] here?
A: 88%

Q: What about the inhibition at 1 µM [1, 7] of the same compound?
A: 88%

Q: And the IC50 [1]?
A: 305 nM

Q: And the “activities against the intracellular amastigotes (in words)” value [2]?
A: low

Q: And the CC50 at 2 h (Haemolysis test; [8])?
A: > 25000 nM

Q: And the CC50 at 72 h [3, 9]?
A: > 25000 nM

Q: And the “R3 H+ bond receiver” value [4]?
A: 5

Q: And the “R6 Polar surface area” value [4]?
A: 69.8 A^2

Q: With `O=C(Nc1ccc(N2CCNCC2)cc1)c1ccn2ncc(-c3cccc(Cl)c3)c2n1` [MMV022478] as the compound, how does the inhibition at 1 µM [1, 6] read?
A: 98.9%

Q: What about the inhibition at 1 µM [1, 7] of the same compound?
A: 98.9%

Q: And the IC50 [1]?
A: 448 nM

Q: What about the IC50 [2] of the same compound?
A: 435 ± 49.2 nM

Q: And the inhibition at 1 µM [2]?
A: 72.4 ± 5.6%

Q: And the CC50 at 2 h (Haemolysis test; [8])?
A: > 25000 nM

Q: What about the CC50 at 72 h [3, 9] of the same compound?
A: > 25000 nM

Q: What about the “R3 H+ bond receiver” value [4] of the same compound?
A: 5

Q: What about the “R6 Polar surface area” value [4] of the same compound?
A: 74.6 A^2

Q: Which inhibition at 1 µM [1, 6] does the source give for `O=C(Nc1cccc(Cl)c1)c1cnc(N2CCN(c3ccncc3)CC2)c(Cl)c1` [MMV024406] here?
A: 97.3%

Q: And the inhibition at 1 µM [1, 7]?
A: 97.3%

Q: What about the IC50 [1] of the same compound?
A: 24 nM

Q: What about the “activities against the intracellular amastigotes (in words)” value [2] of the same compound?
A: low

Q: What about the IC50 [2] of the same compound?
A: 900 ± 65.9 nM

Q: What about the inhibition at 1 µM [2] of the same compound?
A: 55.6 ± 5.5%

Q: What about the CC50 at 2 h (Haemolysis test; [8]) of the same compound?
A: > 25000 nM

Q: What about the CC50 at 72 h [3, 9] of the same compound?
A: > 25000 nM

Q: And the “R3 H+ bond receiver” value [4]?
A: 5

Q: What about the “R6 Polar surface area” value [4] of the same compound?
A: 61.4 A^2

Q: What does the source list for `Cc1cccc(C(=O)Nc2ccnc(N(C)C3CCN(CC(C)C)CC3)c2)c1` [MMV024829]?
A: inhibition at 1 µM [1, 6]: 82.4%; inhibition at 1 µM [1, 7]: 82.4%; IC50 [1]: 356 nM; IC50 [2]: 411 ± 56.6 nM; inhibition at 1 µM [2]: 69.6 ± 4.1%; CC50 at 2 h (Haemolysis test): > 25000 nM; CC50 at 72 h [3]: > 25000 nM; R3 H+ bond receiver [4]: 4

Q: For `COc1cncc(-c2cncc(N3CCN(c4ccncc4)CC3)n2)c1` [MMV085071], which inhibition at 1 µM [1, 6] is on record?
A: 76.1%

Q: What about the inhibition at 1 µM [1, 7] of the same compound?
A: 76.1%

Q: And the IC50 [1]?
A: 283 nM

Q: What about the IC50 [2] of the same compound?
A: 277 ± 37.2 nM

Q: What about the inhibition at 1 µM [2] of the same compound?
A: 80.5 ± 4.2%

Q: What about the CC50 at 2 h (Haemolysis test; [8]) of the same compound?
A: > 25000 nM

Q: And the CC50 at 72 h [3, 9]?
A: > 25000 nM

Q: What about the “R3 H+ bond receiver” value [4] of the same compound?
A: 7

Q: And the “R6 Polar surface area” value [4]?
A: 67.3 A^2

Q: With `CN1CCCC1CCO[C@](C)(c1ccccc1)c1ccc(Cl)cc1` (stereo partly drawn) [MMV637229] as the compound, how does the “R3 H+ bond receiver” value [4] read?
A: 2

Q: With `Clc1cccc(C(c2ccc(CN3CCNCC3)cc2)n2ccnc2)c1` (stereo not drawn) [MMV663250] as the compound, how does the inhibition at 1 µM [1, 6] read?
A: 81%

Q: And the inhibition at 1 µM [1, 7]?
A: 81%

Q: And the IC50 [1]?
A: 326 nM

Q: And the CC50 at 2 h (Haemolysis test; [8])?
A: > 25000 nM

Q: And the CC50 at 72 h [3, 9]?
A: > 25000 nM

Q: And the “R3 H+ bond receiver” value [4]?
A: 3

Q: What about the “R6 Polar surface area” value [4] of the same compound?
A: 33.1 A^2

Q: What does the source list for `CN1CCN(CCCOc2ncc(Nc3ncc(-c4ccc(C(F)(F)F)c(F)c4)nc3C(N)=O)cn2)CC1` [MMV687812]?
A: inhibition at 1 µM [1, 6]: 72.9%; inhibition at 1 µM [1, 7]: 72.9%; IC50 [1]: 390 nM; CC50 at 2 h (Haemolysis test; [8]): > 25000 nM; CC50 at 72 h [3, 9]: > 25000 nM; R3 H+ bond receiver [4]: 13; R6 Polar surface area [4]: 122 A^2

Q: Which results are given for `N=C(N)Nc1ccc(-c2ccc(-c3ccc(NC(=N)N)cc3Cl)o2)c(Cl)c1` [MMV688179, 2,5-Bis (2-chloro-4-guanidinophenyl) furan]?
A: inhibition at 1 µM [1, 6]: 80.6%; inhibition at 1 µM [1, 7]: 80.6%; IC50 [1]: 356 nM; CC50 at 2 h (Haemolysis test; [8]): > 25000 nM; CC50 at 72 h [3, 9]: > 25000 nM; R3 H+ bond receiver [4]: 3; R6 Polar surface area [4]: 142 A^2

Q: With `CO[C@@H]1CN(c2ccc(C#CC3(O)CN4CCC3CC4)c(Cc3ccccc3)n2)C[C@H]1O` (stereo partly drawn) [MMV688415] as the compound, how does the inhibition at 1 µM [1, 6] read?
A: 98.7%

Q: What about the IC50 [1] of the same compound?
A: 145 nM

Q: What about the IC50 [2] of the same compound?
A: 374 ± 45.4 nM

Q: What about the inhibition at 1 µM [2] of the same compound?
A: 68.6 ± 6.6%

Q: And the CC50 at 2 h (Haemolysis test; [8])?
A: > 25000 nM

Q: What about the “hemolytic activity on sheep RBC” value [5] of the same compound?
A: 5.3%

Q: And the CC50 at 72 h [3, 9]?
A: > 25000 nM

Q: And the “CC20 on THP-1 cell line” value (THP-1 cells; 72 h)?
A: 25000 nM

Q: What about the “R3 H+ bond receiver” value [4] of the same compound?
A: 6

Q: With `COc1ccc(Oc2ccc([C@@H](C)N(C)c3ncc4c(N)nc(N)nc4n3)cc2)cc1` [MMV690102] as the compound, how does the inhibition at 1 µM [1, 6] read?
A: 95%

Q: What about the IC50 [1] of the same compound?
A: 158 nM

Q: And the IC50 [2]?
A: 76 ± 18.1 nM

Q: What about the inhibition at 1 µM [2] of the same compound?
A: 90.7 ± 5.3%

Q: And the CC50 at 2 h (Haemolysis test; [8])?
A: > 25000 nM

Q: And the “Cytotoxicity, CC50 (extrapolated IC50), THP-1” value (THP-1 cells; 72 h, extrapolated result)?
A: 36500 nM and 36550 nM and 36000 nM

Q: What about the “Selectivity index (SI)” value (THP-1 cells; CC50 THP-1 cells / IC50 promastigotes or amastigotes) of the same compound?
A: 478.4

Q: And the IC50 (L. infantum)?
A: 3 nM

Q: And the IC50 (MRC-5 cells)?
A: 5400 nM

Q: And the IC50 (PMM cells)?
A: 4000 nM

Q: What about the “R3 H+ bond receiver” value [4] of the same compound?
A: 9

Q: And the “R6 Polar surface area” value [4]?
A: 125 A^2

Q: Which inhibition at 1 µM [1, 6] does the source give for `CCCCCCCCCCCCCCCCOP(=O)([O-])OCC[N+](C)(C)C` [Miltefosine, reference compound] here?
A: 35.3%

Q: And the inhibition at 1 µM [1, 7]?
A: 35.3%

Q: With `N=C(N)c1ccc(OCCCCCOc2ccc(C(=N)N)cc2)cc1` [Pentamidine, reference compound] as the compound, how does the inhibition at 1 µM [1, 6] read?
A: 64.7%

Q: And the inhibition at 1 µM [1, 7]?
A: 64.7%

Q: And the IC50 [1]?
A: 1310 nM

Q: And the IC50 [2]?
A: 1600 ± 90 nM
